From patent US20080200492A1, “METHODS FOR THE TREATMENT OF ALCOHOL ABUSE, ADDICTION AND DEPENDENCY” (priority 2006, published 2008)

What was measured:
[1] = system: alcohol preferring rats; experiment: Alcohol Preferring Rats, Study A: Chronic Administration (14 days); type: in vivo, rat
Protocol: (§1) Adult male selectively-bred alcohol preferring rats were used in this study. The selectively bred alcohol preferring rats are widely used to study the suppressant effects of compounds on voluntary alcohol intake (Faren et al. 2000; Rezvani et al, 1990, 1991, 1992a, 1992b, 1999, 2000, 2002; 2003; Murphy et al, 1988; Overstreet et al., 1992, 1999; Li and McBride, 1995).
(§2) The rats were housed individually under a constant room temperature of 22±1° C. and 12:12 light-dark cycle (7:00-19:00, dark). Animals were fed Agway Prolab Rat/Mouse/Hamster 3000 formula and water ad libitum.
(§3) Alcohol intake was determined using a standard two-bottle choice method (Murphy et al. 1988; McBride et al. 1990; Rezvani et al. 1990, 1991, 1993, 1995, 1997, Rezvani et al., 2007a,b; Rezvani and Grady, 1994). Animals were first given free access to water in a graduated Richter tube for 1 day. Next, they were given access to only a solution of 10% (v/v) ethanol for 3 consecutive days. During this period the animals became accustomed to drinking from Richter tubes and to the taste and pharmacological effects of alcohol. Thereafter, the animals were given free access to both water and a solution of 10% alcohol for 4 consecutive weeks and throughout of the study. The animals continued to have free access to food. Water and alcohol intake were recorded at 6 and 24 hour.
After establishment of a reliable baseline for alcohol, and water intake, the animals were randomly assigned to a treatment regimen. The animals were administered once a day, via gavage, either vehicle (0.5% methylcellulose) or compound of formula (I-A) (at 30 mg/kg) or naltrexone (at 20 mg/kg) for 14 consecutive days. A group of 6-7 animals was used for each treatment. Alcohol and water intake was recorded at 6 hrs and 24 hrs after administration.
(§4) The results are presented as a means ±SEM. Alcohol intake (g/kg) was calculated by multiplying the volume of alcohol consumed in ml by 10% and 0.7893 (ethanol density)/body weight in kg. Alcohol preference, expressed as percentage was calculated as (volume of alcohol consumed in ml/total fluid intake in ml)×100 (Rezvani and Grady, 1994; Rezvani et al., 2007a). Statistical differences between drug-treated and control groups was determined by using ANOVA and Tukey Student's t test for multiple comparison.
The results from Study A provide a measure of whether or not the animals develop tolerance to the suppressant effects of the test compound following a chronic treatment. In Tables 5-8 below, the abbreviation “(I-A)” stands for the compound of formula (I-A), the abbreviation “Naltx” stands for naltrexone, and the abbreviation “EtOH” stands for ethanol.

[2] = system: alcohol preferring rats; experiment: Alcohol Preferring Rats, Study B: Post-Deprivation Effect; type: in vivo, rat; settings: for % EtOH / Alcohol: 45 min before re-exposure to alcohol after 72 hours deprivation
Protocol: as §1, §2, §3
Following Study A, the rats were maintained on alcohol for 15 days without drug. On day 16 post-gavage, rats were put on food and water only for 72 hours. On the next day, 45 min before re-exposure to alcohol, the rats were treated with vehicle (0.5% methylcellulose), naltrexone (at 20 mg/kg) or compound of formula (I-A) (at 30-mg/kg). Alcohol intake was then measured at 1, 3, 6 and 24 hr after exposure.
as §4, with “means.” for “means ±SEM.”
The results from Study B provide a measure of the effectiveness of the test compound to suppress post-deprivation-induced craving for alcohol.

[3] = 30 mg/kg once a day, gavage, Day 1, 6 Hour Intake
[4] = 30 mg/kg once a day, gavage, Day 1, 24 Hour Intake
[5] = 30 mg/kg once a day, gavage, Day 2, 6 Hour Intake
[6] = 30 mg/kg once a day, gavage, Day 2, 24 Hour Intake
[7] = 30 mg/kg once a day, gavage, Day 3, 6 Hour Intake
[8] = 30 mg/kg once a day, gavage, Day 3, 24 Hour Intake
[9] = 30 mg/kg once a day, gavage, Day 4, 6 Hour Intake
[10] = 30 mg/kg once a day, gavage, Day 4, 24 Hour Intake
[11] = 30 mg/kg once a day, gavage, Day 5, 6 Hour Intake
[12] = 30 mg/kg once a day, gavage, Day 5, 24 Hour Intake
[13] = 30 mg/kg once a day, gavage, Day 6, 6 Hour Intake
[14] = 30 mg/kg once a day, gavage, Day 6, 24 Hour Intake
[15] = 30 mg/kg once a day, gavage, Day 7, 6 Hour Intake
[16] = 30 mg/kg once a day, gavage, Day 7, 24 Hour Intake
[17] = 30 mg/kg once a day, gavage, Day 8, 6 Hour Intake
[18] = 30 mg/kg once a day, gavage, Day 8, 24 Hour Intake
[19] = 30 mg/kg once a day, gavage, Day 9, 6 Hour Intake
[20] = 30 mg/kg once a day, gavage, Day 9, 24 Hour Intake
[21] = 30 mg/kg once a day, gavage, Day 10, 6 Hour Intake
[22] = 30 mg/kg once a day, gavage, Day 10, 24 Hour Intake
[23] = 30 mg/kg once a day, gavage, Day 11, 6 Hour Intake
[24] = 30 mg/kg once a day, gavage, Day 11, 24 Hour Intake
[25] = 30 mg/kg once a day, gavage, Day 12, 6 Hour Intake
[26] = 30 mg/kg once a day, gavage, Day 12, 24 Hour Intake
[27] = 30 mg/kg once a day, gavage, Day 13, 6 Hour Intake
[28] = 30 mg/kg once a day, gavage, Day 13, 24 Hour Intake
[29] = 30 mg/kg once a day, gavage, Day 14, 6 Hour Intake
[30] = 30 mg/kg once a day, gavage, Day 14, 24 Hour Intake

## Cc1cccc2cccc(CN3CCC4(CC3)C(=O)N(C[C@H](O)CN)CN4c3ccc(F)cc3)c12 [Cmpd (I-A), 3-(3-amino-2-(R)-hydroxy-propyl)-1-(4-fluoro-phenyl)-8-(8-methyl-naphthalen-1-ylmethyl)-1,3,8-triazaspiro[4.5]decan-4-one]
[1]; [3]
  Alcohol Intake: 1.31 g/kg
  Alcohol Preference: 62 % EtOH
[1]; [4]
  Alcohol Intake: 4.04 g/kg
  Alcohol Preference: 72 % EtOH
[1]; [5]
  Alcohol Intake: 1.54 g/kg
  Alcohol Preference: 48 % EtOH
[1]; [6]
  Alcohol Intake: 3.71 g/kg
  Alcohol Preference: 56 % EtOH
[1]; [7]
  Alcohol Intake: 1.71 g/kg
  Alcohol Preference: 53 % EtOH
[1]; [8]
  Alcohol Intake: 3.39 g/kg
  Alcohol Preference: 54 % EtOH
[1]; [9]
  Alcohol Intake: 1.24 g/kg
  Alcohol Preference: 52 % EtOH
[1]; [10]
  Alcohol Intake: 2.68 g/kg
  Alcohol Preference: 50 % EtOH
[1]; [11]
  Alcohol Intake: 1.54 g/kg
  Alcohol Preference: 39 % EtOH
[1]; [12]
  Alcohol Intake: 2.97 g/kg
  Alcohol Preference: 47 % EtOH
[1]; [13]
  Alcohol Intake: 1.04 g/kg
  Alcohol Preference: 60 % EtOH
[1]; [14]
  Alcohol Intake: 2.99 g/kg
  Alcohol Preference: 59 % EtOH
[1]; [15]
  Alcohol Intake: 1.34 g/kg
  Alcohol Preference: 65 % EtOH
[1]; [16]
  Alcohol Intake: 3.60 g/kg
  Alcohol Preference: 76 % EtOH
[1]; [17]
  Alcohol Intake: 1.63 g/kg
  Alcohol Preference: 61 % EtOH
[1]; [18]
  Alcohol Intake: 3.97 g/kg
  Alcohol Preference: 70 % EtOH
[1]; [19]
  Alcohol Intake: 1.84 g/kg
  Alcohol Preference: 67 % EtOH
[1]; [20]
  Alcohol Intake: 3.78 g/kg
  Alcohol Preference: 68 % EtOH
[1]; [21]
  Alcohol Intake: 1.38 g/kg
  Alcohol Preference: 72 % EtOH
[1]; [22]
  Alcohol Intake: 3.00 g/kg
  Alcohol Preference: 73 % EtOH
[1]; [23]
  Alcohol Intake: 1.17 g/kg
  Alcohol Preference: 67 % EtOH
[1]; [24]
  Alcohol Intake: 2.86 g/kg
  Alcohol Preference: 81 % EtOH
[1]; [25]
  Alcohol Intake: 1.07 g/kg
  Alcohol Preference: 51 % EtOH
[1]; [26]
  Alcohol Intake: 3.03 g/kg
  Alcohol Preference: 69 % EtOH
[1]; [27]
  Alcohol Intake: 0.96 g/kg
  Alcohol Preference: 45 % EtOH
[1]; [28]
  Alcohol Intake: 2.67 g/kg
  Alcohol Preference: 67 % EtOH
[1]; [29]
  Alcohol Intake: 0.55 g/kg
  Alcohol Preference: 28 % EtOH
[1]; [30]
  Alcohol Intake: 1.91 g/kg
  Alcohol Preference: 45 % EtOH
[1]; 30 mg/kg once a day, at 6 and 24 hours, over the course of 14 days
  Alcohol Intake: showed a decrease in alcohol intake
[1]; 30 mg/kg once a day, over the 14 days of administration
  Tolerance to the alcohol reducing effects: did not develop tolerance
[2]; 30 mg/kg, 1 Hour Post Dosing
  % EtOH: 84%
  Alcohol: 0.39 g/kg
[2]; 30 mg/kg, 3 Hours Post Dosing
  % EtOH: 75%
  Alcohol: 0.72 g/kg
[2]; 30 mg/kg, 6 Hours Post Dosing
  % EtOH: 72%
  Alcohol: 1.48 g/kg
[2]; 30 mg/kg, 24 Hours Post Dosing
  % EtOH: 73%
  Alcohol: 3.72 g/kg
[2]; 30 mg/kg, at 1, 3, 6 and 24 hours post dosing
  Alcohol intake and preference, post-deprivation: showed a decrease in alcohol intake and preference

## O=C1CC[C@@]2(O)[C@H]3Cc4ccc(O)c5c4[C@@]2(CCN3CC2CC2)[C@H]1O5 [Naltrexone, naltrexone, reference compound]
[1]; 20 mg/kg once a day, gavage, Day 1, 6 Hour Intake
  Alcohol Preference: 64 % EtOH
[1]; 20 mg/kg once a day, gavage, Day 1, 24 Hour Intake
  Alcohol Preference: 65 % EtOH
[1]; 20 mg/kg once a day, gavage, Day 2, 6 Hour Intake
  Alcohol Preference: 67 % EtOH
[1]; 20 mg/kg once a day, gavage, Day 2, 24 Hour Intake
  Alcohol Preference: 68 % EtOH
[1]; 20 mg/kg once a day, gavage, Day 3, 6 Hour Intake
  Alcohol Preference: 70 % EtOH
[1]; 20 mg/kg once a day, gavage, Day 3, 24 Hour Intake
  Alcohol Preference: 68 % EtOH
[1]; 20 mg/kg once a day, gavage, Day 4, 6 Hour Intake
  Alcohol Preference: 80 % EtOH
[1]; 20 mg/kg once a day, gavage, Day 4, 24 Hour Intake
  Alcohol Preference: 77 % EtOH
[1]; 20 mg/kg once a day, gavage, Day 5, 6 Hour Intake
  Alcohol Preference: 81 % EtOH
[1]; 20 mg/kg once a day, gavage, Day 5, 24 Hour Intake
  Alcohol Preference: 79 % EtOH
[1]; 20 mg/kg once a day, gavage, Day 6, 6 Hour Intake
  Alcohol Preference: 86 % EtOH
[1]; 20 mg/kg once a day, gavage, Day 6, 24 Hour Intake
  Alcohol Preference: 72 % EtOH
[1]; 20 mg/kg once a day, gavage, Day 7, 6 Hour Intake
  Alcohol Preference: 88 % EtOH
[1]; 20 mg/kg once a day, gavage, Day 7, 24 Hour Intake
  Alcohol Preference: 84 % EtOH
[1]; 20 mg/kg once a day, gavage, Day 8, 6 Hour Intake
  Alcohol Preference: 88 % EtOH
[1]; 20 mg/kg once a day, gavage, Day 8, 24 Hour Intake
  Alcohol Preference: 85 % EtOH
[1]; 20 mg/kg once a day, gavage, Day 9, 6 Hour Intake
  Alcohol Preference: 89 % EtOH
[1]; 20 mg/kg once a day, gavage, Day 9, 24 Hour Intake
  Alcohol Preference: 89 % EtOH
[1]; 20 mg/kg once a day, gavage, Day 10, 6 Hour Intake
  Alcohol Preference: 91 % EtOH
[1]; 20 mg/kg once a day, gavage, Day 10, 24 Hour Intake
  Alcohol Preference: 85 % EtOH
[1]; 20 mg/kg once a day, gavage, Day 11, 6 Hour Intake
  Alcohol Preference: 99 % EtOH
[1]; 20 mg/kg once a day, gavage, Day 11, 24 Hour Intake
  Alcohol Preference: 99 % EtOH
[1]; 20 mg/kg once a day, gavage, Day 12, 6 Hour Intake
  Alcohol Preference: 95 % EtOH
[1]; 20 mg/kg once a day, gavage, Day 12, 24 Hour Intake
  Alcohol Preference: 97 % EtOH
[1]; 20 mg/kg once a day, gavage, Day 13, 6 Hour Intake
  Alcohol Preference: 90 % EtOH
[1]; 20 mg/kg once a day, gavage, Day 13, 24 Hour Intake
  Alcohol Preference: 95 % EtOH
[1]; 20 mg/kg once a day, gavage, Day 14, 6 Hour Intake
  Alcohol Preference: 92 % EtOH
[1]; 20 mg/kg once a day, gavage, Day 14, 24 Hour Intake
  Alcohol Preference: 89 % EtOH
[2]; 20 mg/kg, 1 Hour Post Dosing
  % EtOH: 95%
  Alcohol: 0.48 g/kg
[2]; 20 mg/kg, 3 Hours Post Dosing
  % EtOH: 94%
  Alcohol: 1.15 g/kg
[2]; 20 mg/kg, 6 Hours Post Dosing
  % EtOH: 87%
  Alcohol: 2.35 g/kg
[2]; 20 mg/kg, 24 Hours Post Dosing
  % EtOH: 87%
  Alcohol: 6.47 g/kg
